Reference: patent US20070128217A1 (priority 2003, published 2007)

Legend:
[1] = test system: rabbit serum obtained by immunizing a rabbit with the SARS-CoV strain Frankfurt 1; type: binding; parameters: Binding of a rabbit serum to linear peptides / Binding of a rabbit serum to looped peptides / Rabbit serum linear peptides / Rabbit serum looped peptides / Binding of a rabbit serum to linear peptides of protein N of SARS-CoV Urbani (Rabbit serum linear peptides) / Binding of a rabbit serum to looped/cyclic peptides of protein N of SARS-CoV Urbani (Rabbit serum looped peptides): unit not given here
[2] = test system: control sera (pooled serum of ten healthy LUMC hospital workers; commercial negative donor pooled serum from the Dutch bloodbank); type: binding, human; parameters: Binding of Control serum LUMC to linear peptides / Binding of Control serum Blood-bank to linear peptides / Binding of Control serum LUMC to looped peptides / Binding of Control Serum Blood-Bank to Looped peptides / Binding of Control serum LUMC to linear peptides of the protein M of SARS-CoV Urbani / Binding of Control serum Blood-bank to linear peptides of the protein M of SARS-CoV Urbani / Binding of Control serum LUMC to looped peptides of the protein M of SARS-CoV Urbani / Binding of Control Serum Blood-Bank to Looped peptides of the protein M of SARS-CoV Urbani: unit not given here
[3] = test system: antibodies in sera from SARS patients (sera 1a, 1b, 2, 6, 37, 62, London, SARS-yellow, SARS-green); type: binding, human; parameters: Binding of serum 6 to linear peptides of protein X1 of SARS-CoV Urbani / Binding of serum 37 to linear peptides of protein X1 of SARS-CoV Urbani / Binding of serum 6 to looped/cyclic peptide (PEPSCAN-ELISA) / Binding of serum 37 to looped/cyclic peptide (PEPSCAN-ELISA) / Binding of serum 37 to looped/cyclic peptides of protein X1 of SARS-CoV Urbani / Binding of serum 6 to linear peptides of protein X2 / Binding of serum 37 to linear peptides of protein X2 / Binding of serum 37 to looped/cyclic peptides of protein X2 of SARS-CoV Urbani / Binding of serum 6 to linear peptides of protein M of SARS-CoV Urbani / Binding of serum 37 to linear peptides of protein M of SARS-CoV Urbani / Binding of serum 6 to looped/cyclic peptides of protein M of SARS-CoV Urbani / Binding of serum 37 to looped/cyclic peptides of protein M of SARS-CoV Urbani / Binding of serum 6 to linear peptides of protein X3 of SARS-CoV Urbani / Binding of serum 37 to linear peptides of protein X3 of SARS-CoV Urbani / Binding of serum 37 to looped/cyclic peptides of protein X3 of SARS-CoV Urbani / Binding of serum 6 to linear peptides of protein X4 of SARS-CoV Urbani / Binding of serum 37 to linear peptides of protein X4 of SARS-CoV Urbani / Binding of serum 37 to looped/cyclic peptides of protein X4 of SARS-CoV Urbani / Binding of serum 6 to linear peptides of protein X5 of SARS-CoV Urbani / Binding of serum 37 to linear peptides of protein X5 of SARS-CoV Urbani / Binding of serum 37 to looped/cyclic peptides of protein X5 of SARS-CoV Urbani / Binding of serum 6 to linear peptides of protein N of SARS-CoV Urbani / Binding of serum 37 to linear peptides of protein N of SARS-CoV Urbani / Binding of serum 6 to linear peptide (PEPSCAN-ELISA) / Binding of serum 1a to looped/cyclic peptides of protein N of SARS-CoV Urbani / Binding of serum 1b to looped/cyclic peptides of protein N of SARS-CoV Urbani / Binding of serum 2 to looped/cyclic peptides of protein N of SARS-CoV Urbani / Binding of serum 6 to looped/cyclic peptides of protein N of SARS-CoV Urbani / Binding of serum 37 to looped/cyclic peptides of protein N of SARS-CoV Urbani / Binding of serum 62 to looped/cyclic peptides of protein N of SARS-CoV Urbani / Binding of serum London to looped/cyclic peptides of protein N of SARS-CoV Urbani / Binding of serum SARS-green to looped/cyclic peptides of protein N of SARS-CoV Urbani: unit not given here

PVTLACFVLAAVYRI
Rabbit serum linear peptides [1]: 0.4
Rabbit serum looped peptides [1]: 0.3
Binding of Control Serum Blood-Bank to Looped peptides of the protein M of SARS-CoV Urbani [2]: 0.6
Binding of Control serum Blood-bank to linear peptides of the protein M of SARS-CoV Urbani [2]: 0.5
Binding of Control serum LUMC to linear peptides of the protein M of SARS-CoV Urbani [2]: 0.2
Binding of Control serum LUMC to looped peptides of the protein M of SARS-CoV Urbani [2]: 0.7
Binding of serum 1a to linear peptides of protein M of SARS-CoV Urbani [3]: 0.7
Binding of serum 1a to looped/cyclic peptides of protein M of SARS-CoV Urbani [3]: 0.7
Binding of serum 1b to linear peptides of protein M of SARS-CoV Urbani [3]: 0.5
Binding of serum 1b to looped/cyclic peptides of protein M of SARS-CoV Urbani [3]: 0.6
Binding of serum 2 to linear peptides of protein M of SARS-CoV Urbani [3]: 0.5
Binding of serum 2 to looped/cyclic peptides of protein M of SARS-CoV Urbani [3]: 0.6
Binding of serum 6 to linear peptides of protein M of SARS-CoV Urbani [3]: 0.3
Binding of serum 6 to looped/cyclic peptides of protein M of SARS-CoV Urbani [3]: 0.7
Binding of serum 37 to linear peptides of protein M of SARS-CoV Urbani [3]: 0.6
Binding of serum 37 to looped/cyclic peptides of protein M of SARS-CoV Urbani [3]: 0.7
Binding of serum 62 to linear peptides of protein M of SARS-CoV Urbani [3]: 0.7
Binding of serum 62 to looped/cyclic peptides of protein M of SARS-CoV Urbani [3]: 0.7
Binding of serum London to linear peptides of protein M of SARS-CoV Urbani [3]: 0.3
Binding of serum London to looped/cyclic peptides of protein M of SARS-CoV Urbani [3]: 0.2
Binding of serum SARS-green to linear peptides of protein M of SARS-CoV Urbani [3]: 0.2
Binding of serum SARS-green to looped/cyclic peptides of protein M of SARS-CoV Urbani [3]: 0.2
Binding of serum SARS-yellow to linear peptides of protein M of SARS-CoV Urbani [3]: 0.0
Binding of serum SARS-yellow to looped/cyclic peptides of protein M of SARS-CoV Urbani [3]: 0.6

KGFQFICNLLLLFVT
Binding of a rabbit serum to linear peptides [1]: 0.6
Binding of a rabbit serum to looped peptides [1]: 0.5
Binding of Control Serum Blood-Bank to Looped peptides [2]: 0.5
Binding of Control serum Blood-bank to linear peptides [2]: 0.7
Binding of Control serum LUMC to linear peptides [2]: 0.7
Binding of Control serum LUMC to looped peptides [2]: 0.5
Binding of serum 1a to linear peptides of protein X1 of SARS-CoV Urbani [3]: 0.6
Binding of serum 1a to looped/cyclic peptide (PEPSCAN-ELISA) [3]: 0.6
Binding of serum 1b to linear peptides of protein X1 of SARS-CoV Urbani [3]: 0.5
Binding of serum 1b to looped/cyclic peptide (PEPSCAN-ELISA) [3]: 0.4
Binding of serum 2 to linear peptides of protein X1 of SARS-CoV Urbani [3]: 0.6
Binding of serum 2 to looped/cyclic peptide (PEPSCAN-ELISA) [3]: 0.4
Binding of serum 6 to linear peptides of protein X1 of SARS-CoV Urbani [3]: 0.5
Binding of serum 6 to looped/cyclic peptide (PEPSCAN-ELISA) [3]: 1.0
Binding of serum 37 to linear peptides of protein X1 of SARS-CoV Urbani [3]: 0.6
Binding of serum 37 to looped/cyclic peptide (PEPSCAN-ELISA) [3]: 0.6
Binding of serum 62 to linear peptides of protein X1 of SARS-CoV Urbani [3]: 0.7
Binding of serum 62 to looped/cyclic peptide (PEPSCAN-ELISA) [3]: 0.6
Binding of serum London to linear peptides of protein X1 of SARS-CoV Urbani [3]: 0.3
Binding of serum London to looped/cyclic peptide (PEPSCAN-ELISA) [3]: 1.1
Binding of serum SARS-green to linear peptides of protein X1 of SARS-CoV Urbani [3]: 0.2
Binding of serum SARS-green to looped/cyclic peptide (PEPSCAN-ELISA) [3]: 0.4
Binding of serum SARS-yellow to linear peptides of protein X1 of SARS-CoV Urbani [3]: 0.6
Binding of serum SARS-yellow to looped/cyclic peptide (PEPSCAN-ELISA) [3]: 0.6

TMSLYMAISPKFTTS
Binding of a rabbit serum to linear peptides [1]: 0.2
Binding of a rabbit serum to looped peptides [1]: 0.5
Binding of Control Serum Blood-Bank to Looped peptides [2]: 0.8
Binding of Control serum Blood-bank to linear peptides [2]: 0.5
Binding of Control serum LUMC to linear peptides [2]: 0.7
Binding of Control serum LUMC to looped peptides [2]: 0.8
Binding of serum 1a to linear peptides of protein X2 [3]: 0.5
Binding of serum 1a to looped/cyclic peptides of protein X2 of SARS-CoV Urbani [3]: 0.6
Binding of serum 1b to linear peptides of protein X2 [3]: 0.0
Binding of serum 1b to looped/cyclic peptides of protein X2 of SARS-CoV Urbani [3]: 0.6
Binding of serum 2 to linear peptides of protein X2 [3]: 0.4
Binding of serum 2 to looped/cyclic peptides of protein X2 of SARS-CoV Urbani [3]: 0.4
Binding of serum 6 to linear peptides of protein X2 [3]: 0.3
Binding of serum 6 to looped/cyclic peptides of protein X2 of SARS-CoV Urbani [3]: 0.4
Binding of serum 37 to linear peptides of protein X2 [3]: 0.2
Binding of serum 37 to looped/cyclic peptides of protein X2 of SARS-CoV Urbani [3]: 0.5
Binding of serum 62 to linear peptides of protein X2 [3]: 0.7
Binding of serum 62 to looped/cyclic peptides of protein X2 of SARS-CoV Urbani [3]: 0.7
Binding of serum London to linear peptides of protein X2 [3]: 0.4
Binding of serum London to looped/cyclic peptides of protein X2 of SARS-CoV Urbani [3]: 0.2
Binding of serum SARS-green to linear peptides of protein X2 [3]: 0.5
Binding of serum SARS-green to looped/cyclic peptides of protein X2 of SARS-CoV Urbani [3]: 0.4
Binding of serum SARS-yellow to linear peptides of protein X2 [3]: 0.0
Binding of serum SARS-yellow to looped/cyclic peptides of protein X2 of SARS-CoV Urbani [3]: 0.6

RSVSPKLFIRQEEVQ
Rabbit serum linear peptides [1]: 0.4
Rabbit serum looped peptides [1]: 0.4
Binding of Control Serum Blood-Bank to Looped peptides [2]: 0.6
Binding of Control serum Blood-bank to linear peptides [2]: 0.5
Binding of Control serum LUMC to linear peptides [2]: 0.4
Binding of Control serum LUMC to looped peptides [2]: 0.7
Binding of serum 1a to linear peptides of protein X4 of SARS-CoV Urbani [3]: 0.7
Binding of serum 1a to looped/cyclic peptides of protein X4 of SARS-CoV Urbani [3]: 0.6
Binding of serum 1b to linear peptides of protein X4 of SARS-CoV Urbani [3]: 0.4
Binding of serum 1b to looped/cyclic peptides of protein X4 of SARS-CoV Urbani [3]: 0.5
Binding of serum 2 to linear peptides of protein X4 of SARS-CoV Urbani [3]: 0.4
Binding of serum 2 to looped/cyclic peptides of protein X4 of SARS-CoV Urbani [3]: 0.5
Binding of serum 6 to linear peptides of protein X4 of SARS-CoV Urbani [3]: 0.5
Binding of serum 6 to looped/cyclic peptides of protein X4 of SARS-CoV Urbani [3]: 0.5
Binding of serum 37 to linear peptides of protein X4 of SARS-CoV Urbani [3]: 0.6
Binding of serum 37 to looped/cyclic peptides of protein X4 of SARS-CoV Urbani [3]: 0.7
Binding of serum 62 to linear peptides of protein X4 of SARS-CoV Urbani [3]: 0.7
Binding of serum 62 to looped/cyclic peptides of protein X4 of SARS-CoV Urbani [3]: 0.6
Binding of serum London to linear peptides of protein X4 of SARS-CoV Urbani [3]: 0.6
Binding of serum London to looped/cyclic peptides of protein X4 of SARS-CoV Urbani [3]: 0.3
Binding of serum SARS-green to linear peptides of protein X4 of SARS-CoV Urbani [3]: 0.5
Binding of serum SARS-green to looped/cyclic peptides of protein X4 of SARS-CoV Urbani [3]: 0.4
Binding of serum SARS-yellow to linear peptides of protein X4 of SARS-CoV Urbani [3]: 0.2
Binding of serum SARS-yellow to looped/cyclic peptides of protein X4 of SARS-CoV Urbani [3]: 0.5

FQVTIAEILIIIMRT
Rabbit serum linear peptides [1]: 0.2
Rabbit serum looped peptides [1]: 0.3
Binding of Control Serum Blood-Bank to Looped peptides of the protein X3 of SARS-CoV Urbani [2]: 0.7
Binding of Control serum Blood-bank to linear peptides of the protein X3 of SARS-CoV Urbani [2]: 0.8
Binding of Control serum LUMC to linear peptides of the protein X3 of SARS-CoV Urbani [2]: 0.4
Binding of Control serum LUMC to looped peptides of the protein X3 of SARS-CoV Urbani [2]: 0.6
Binding of serum 1a to linear peptides of protein X3 of SARS-CoV Urbani [3]: 0.7
Binding of serum 1a to looped/cyclic peptides of protein X3 of SARS-CoV Urbani [3]: 0.5
Binding of serum 1b to linear peptides of protein X3 of SARS-CoV Urbani [3]: 0.3
Binding of serum 1b to looped/cyclic peptides of protein X3 of SARS-CoV Urbani [3]: 0.2
Binding of serum 2 to linear peptides of protein X3 of SARS-CoV Urbani [3]: 0.6
Binding of serum 2 to looped/cyclic peptides of protein X3 of SARS-CoV Urbani [3]: 0.5
Binding of serum 6 to linear peptides of protein X3 of SARS-CoV Urbani [3]: 0.6
Binding of serum 6 to looped/cyclic peptides of protein X3 of SARS-CoV Urbani [3]: 0.3
Binding of serum 37 to linear peptides of protein X3 of SARS-CoV Urbani [3]: 0.3
Binding of serum 37 to looped/cyclic peptides of protein X3 of SARS-CoV Urbani [3]: 0.6
Binding of serum 62 to linear peptides of protein X3 of SARS-CoV Urbani [3]: 0.5
Binding of serum 62 to looped/cyclic peptides of protein X3 of SARS-CoV Urbani [3]: 0.4
Binding of serum London to linear peptides of protein X3 of SARS-CoV Urbani [3]: 0.7
Binding of serum London to looped/cyclic peptides of protein X3 of SARS-CoV Urbani [3]: 0.2
Binding of serum SARS-green to linear peptides of protein X3 of SARS-CoV Urbani [3]: 0.5
Binding of serum SARS-green to looped/cyclic peptides of protein X3 of SARS-CoV Urbani [3]: 0.2
Binding of serum SARS-yellow to linear peptides of protein X3 of SARS-CoV Urbani [3]: 1.1
Binding of serum SARS-yellow to looped/cyclic peptides of protein X3 of SARS-CoV Urbani [3]: 0.6
